The results in this text go back to ChEMBL document CHEMBL1201862, “PubChem BioAssay data set” (2004).

Activity calls are given as the source filed them.

Test [1] addresses T1, Replicative DNA helicase DnaB (Mycobacterium tuberculosis, UniProt P9WMR3).
T1 sequence (P9WMR3 whole entry): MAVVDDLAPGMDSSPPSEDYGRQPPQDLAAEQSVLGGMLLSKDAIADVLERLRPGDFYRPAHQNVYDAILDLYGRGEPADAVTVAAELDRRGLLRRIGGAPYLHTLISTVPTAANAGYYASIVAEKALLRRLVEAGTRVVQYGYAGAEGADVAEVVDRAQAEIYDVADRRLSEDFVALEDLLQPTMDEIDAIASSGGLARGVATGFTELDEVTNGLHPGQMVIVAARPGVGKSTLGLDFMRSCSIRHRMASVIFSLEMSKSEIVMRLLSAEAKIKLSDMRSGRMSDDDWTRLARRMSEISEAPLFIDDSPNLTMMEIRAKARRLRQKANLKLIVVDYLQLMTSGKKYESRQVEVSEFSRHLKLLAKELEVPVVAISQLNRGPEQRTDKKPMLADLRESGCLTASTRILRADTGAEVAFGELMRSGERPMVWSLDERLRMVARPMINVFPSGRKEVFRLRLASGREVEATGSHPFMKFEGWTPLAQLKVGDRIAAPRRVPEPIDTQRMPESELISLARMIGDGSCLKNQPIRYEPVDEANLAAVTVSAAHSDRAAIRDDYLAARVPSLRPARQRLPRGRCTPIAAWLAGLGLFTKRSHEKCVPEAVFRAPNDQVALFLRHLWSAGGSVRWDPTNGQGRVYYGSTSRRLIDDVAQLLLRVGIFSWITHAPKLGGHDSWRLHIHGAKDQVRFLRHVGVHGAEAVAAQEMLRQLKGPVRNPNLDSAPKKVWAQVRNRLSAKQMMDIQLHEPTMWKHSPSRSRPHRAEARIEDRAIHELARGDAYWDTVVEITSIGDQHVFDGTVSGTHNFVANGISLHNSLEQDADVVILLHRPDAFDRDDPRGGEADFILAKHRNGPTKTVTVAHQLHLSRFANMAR
Nature of the test: DnaB intein splicing inhibitors, dose response, biochemical, cell-free fluorescence (AID 449749). Format: functional.

Test [2] deals with T2, Histone-lysine N-methyltransferase NSD2 (Homo sapiens, UniProt O96028).
T2 sequence (O96028 whole entry): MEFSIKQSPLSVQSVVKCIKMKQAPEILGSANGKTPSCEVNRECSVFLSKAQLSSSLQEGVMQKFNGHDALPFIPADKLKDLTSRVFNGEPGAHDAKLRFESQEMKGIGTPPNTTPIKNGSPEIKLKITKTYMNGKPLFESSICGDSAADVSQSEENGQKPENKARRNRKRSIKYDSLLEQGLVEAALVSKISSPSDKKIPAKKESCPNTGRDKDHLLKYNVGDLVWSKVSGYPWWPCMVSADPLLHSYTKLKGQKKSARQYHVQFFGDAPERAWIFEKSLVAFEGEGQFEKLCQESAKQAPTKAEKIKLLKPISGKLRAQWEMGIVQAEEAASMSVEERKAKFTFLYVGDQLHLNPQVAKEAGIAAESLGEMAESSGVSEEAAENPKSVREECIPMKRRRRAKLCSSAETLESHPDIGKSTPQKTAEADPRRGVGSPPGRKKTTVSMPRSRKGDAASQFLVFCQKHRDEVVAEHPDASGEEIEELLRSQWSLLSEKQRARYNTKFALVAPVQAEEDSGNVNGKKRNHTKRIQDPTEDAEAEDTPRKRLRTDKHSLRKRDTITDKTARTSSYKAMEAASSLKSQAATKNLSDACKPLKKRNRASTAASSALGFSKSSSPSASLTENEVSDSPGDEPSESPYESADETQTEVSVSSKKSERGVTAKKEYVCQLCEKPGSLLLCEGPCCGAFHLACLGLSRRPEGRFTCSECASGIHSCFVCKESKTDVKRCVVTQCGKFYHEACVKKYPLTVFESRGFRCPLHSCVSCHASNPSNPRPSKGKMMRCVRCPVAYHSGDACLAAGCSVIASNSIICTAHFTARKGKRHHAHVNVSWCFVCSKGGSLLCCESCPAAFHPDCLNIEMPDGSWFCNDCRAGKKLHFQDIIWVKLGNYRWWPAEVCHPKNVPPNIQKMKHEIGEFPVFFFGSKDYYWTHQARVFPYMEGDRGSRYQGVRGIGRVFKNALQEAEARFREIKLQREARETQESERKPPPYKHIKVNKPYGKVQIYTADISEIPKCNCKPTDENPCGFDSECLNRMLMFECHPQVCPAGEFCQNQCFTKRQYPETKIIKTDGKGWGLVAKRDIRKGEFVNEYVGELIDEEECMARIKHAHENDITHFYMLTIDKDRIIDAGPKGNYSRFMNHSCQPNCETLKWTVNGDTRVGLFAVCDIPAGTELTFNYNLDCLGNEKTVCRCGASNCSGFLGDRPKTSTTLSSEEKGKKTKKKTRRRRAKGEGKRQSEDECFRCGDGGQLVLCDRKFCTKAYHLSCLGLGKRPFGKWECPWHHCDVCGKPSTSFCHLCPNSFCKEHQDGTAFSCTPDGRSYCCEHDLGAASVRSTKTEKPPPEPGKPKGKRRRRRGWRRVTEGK
Format: biochemical.

Test [3] concerns the target T3, RNA-binding protein pos-1 (Caenorhabditis elegans, UniProt G5EF15).
T3 sequence (G5EF15 whole entry): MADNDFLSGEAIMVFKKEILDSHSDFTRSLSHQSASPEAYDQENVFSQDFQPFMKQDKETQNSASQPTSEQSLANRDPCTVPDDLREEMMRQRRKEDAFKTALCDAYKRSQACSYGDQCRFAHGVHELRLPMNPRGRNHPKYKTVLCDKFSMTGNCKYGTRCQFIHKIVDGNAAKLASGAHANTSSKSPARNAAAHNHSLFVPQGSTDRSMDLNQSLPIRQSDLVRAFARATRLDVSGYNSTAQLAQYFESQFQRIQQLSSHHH
As to the kind of experiment: disruptors of C. elegans POS-1 RNA interaction – biochemical, fluorescence polarization, dose response (AID 1964).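 Also: purified POS-1 fused to maltose binding protein made in E. coli; potency of compounds blocking POS-1 binding to fluorescent RNA.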

Test [4] concerns the target T4, Zinc finger protein mex-5 (Caenorhabditis elegans, UniProt Q9XUB2).
T4 sequence (Q9XUB2 whole entry): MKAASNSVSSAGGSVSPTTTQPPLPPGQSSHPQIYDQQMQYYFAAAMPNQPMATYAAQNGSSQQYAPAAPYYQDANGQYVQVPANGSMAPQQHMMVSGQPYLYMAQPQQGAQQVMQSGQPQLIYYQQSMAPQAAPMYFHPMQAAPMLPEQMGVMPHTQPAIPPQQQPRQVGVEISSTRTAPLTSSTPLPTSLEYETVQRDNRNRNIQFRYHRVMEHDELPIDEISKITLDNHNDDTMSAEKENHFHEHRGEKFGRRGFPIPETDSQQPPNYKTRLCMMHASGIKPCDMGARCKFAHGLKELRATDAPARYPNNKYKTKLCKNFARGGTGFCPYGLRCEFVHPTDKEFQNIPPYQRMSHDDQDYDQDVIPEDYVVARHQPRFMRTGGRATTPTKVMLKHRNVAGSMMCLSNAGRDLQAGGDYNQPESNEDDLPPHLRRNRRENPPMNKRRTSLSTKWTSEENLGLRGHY
As to the kind of experiment: potency of MEX-5 RNA-binding blockers – biochemical, C. elegans, fluorescence polarization, dose response (AID 1960).

`N#Cc1c(N2CCCCC2)nc(N)c2c(N)nc(SCC(=O)O)cc12`: in test [1], the AC50 was 24.9 µM (active).
In the case of `O=[N+]([O-])c1ccc(Sc2cccc[n+]2[O-])c2nonc12`, the half-maximal activity concentration (AC50) is 5.25 µM (active) in test [1] and 5.12 µM (active) in test [2].
The like results for `CC1(C)Cc2ccccc2C2=NNC(=O)C2=N1` were, in that order, 0.343 µM (active) and 16.4 µM (active).
For the molecule `Oc1ccc(NC(=S)N=Nc2c(O)[nH]c3ccccc23)cc1`, the EC50 in test [3] is 16.3 µM (active); in test [4], 3.98 µM (active).
In the case of `CCc1ccc(S(=O)(=O)Nc2cc(SCC(=O)O)c(O)c3ccccc23)cc1`, the results for the EC50 in test [3] and in test [4] were 35.5 µM (active) and 11.5 µM (active), respectively. The AC50 in test [1] is 0.77 µM (active); in test [2], 4.83 µM (active).
For the molecule `Oc1c(Cl)cc(Cl)c(Cl)c1Cc1c(O)c(Cl)cc(Cl)c1Cl` [HEXACHLOROPHENE], the EC50 in test [3] is 45.4 µM (inconclusive); in test [4] it was 19.1 µM (inconclusive). Also, the AC50 in test [1] was 1.81 µM (active).

What is called AC50 is the midpoint of the concentration-response curve, whichever way the signal moves. Broadly, the EC50 is the concentration that produces a half-maximal response.
